Reference: ChEMBL document CHEMBL1145655, “Plant anticancer agents XXV. Constituents of Soulamea soulameoides” (1983)
In brackets after ≈: the same amount, converted by molar mass.

Experiments:
Assay type in all cases: functional
KB = assay: Cytotoxicity against human KB cells; conditions: read-out: ED50 (the source's name)
P388 [1] = assay: Cytotoxicity against mouse P388 cells; conditions: read-out: ED50 (the source's name)
P388 [2] = assay: In vivo antitumor activity against mouse P388 cells at 1 mg/kg relative to control
P388 [3] = assay: In vivo antitumor activity against mouse P388 cells at 0.5 mg/kg relative to control
P388 [4] = assay: In vivo antitumor activity against mouse P388 cells at 0.25 mg/kg relative to control
P388 [5] = assay: In vivo antitumor activity against mouse P388 cells at 5 mg/kg relative to control
P388 [6] = assay: In vivo antitumor activity against mouse P388 cells at 2.5 mg/kg relative to control
P388 [7] = assay: In vivo antitumor activity against mouse P388 cells at 1.25 mg/kg relative to control
P388 [8] = assay: In vivo antitumor activity against mouse P388 cells at 7.5 mg/kg relative to control
P388 [9] = assay: In vivo antitumor activity against mouse P388 cells at 3.8 mg/kg relative to control
P388 [10] = assay: In vivo antitumor activity against mouse P388 cells at 1.9 mg/kg relative to control
P388 [11] = assay: In vivo antitumor activity against mouse P388 cells at 0.9 mg/kg relative to control
P388 [12] = assay: In vivo antitumor activity against mouse P388 cells at 19.6 mg/kg relative to control
P388 [13] = assay: In vivo antitumor activity against mouse P388 cells at 9.83 mg/kg relative to control
P388 [14] = assay: In vivo antitumor activity against mouse P388 cells at 4.92 mg/kg relative to control
P388 [15] = assay: In vivo antitumor activity against mouse P388 cells at 2.46 mg/kg relative to control

COc1cc([C@H]2Oc3c(OC)cc4ccc(=O)oc4c3O[C@@H]2CO)ccc1O [CLEOMISCOSIN A]
EC50 (KB): 4.9 µg/mL (≈ 12.7 µM)
EC50 (P388 [1]): 2.8 µg/mL (≈ 7.25 µM)

COC(=O)[C@]12OC[C@]34[C@H]([C@@H](O)[C@@H]1O)[C@@]1(C)[C@H](O)C(=O)C=C(C)[C@@H]1C[C@H]3OC(=O)[C@H](OC(=O)CC(C)C)[C@@H]24 [ISOBRUCEIN A]
EC50 (KB): 0.003 µg/mL (≈ 0.00574 µM)
EC50 (P388 [1]): 0.001 µg/mL (≈ 0.00191 µM)
T/C (P388 [2]): 155%
T/C (P388 [3]): 145%
T/C (P388 [4]): 138%

O=c1ccc2nccc3c4c(O)cccc4n1c23
EC50 (KB): 2.1 µg/mL (≈ 8.89 µM)
EC50 (P388 [1]): 2.3 µg/mL (≈ 9.74 µM)
T/C (P388 [5]): 102%
T/C (P388 [6]): 107%
T/C (P388 [7]): 108%

CC(=O)O[C@H]1C(=O)O[C@@H]2C[C@H]3C(C)=CC(=O)[C@@H](O)[C@]3(C)[C@H]3[C@]4(O)OC[C@]32[C@@H]1[C@@H](C)[C@H]4O [HOLACANTHONE]
T/C (P388 [8]): 136%
T/C (P388 [9]): 154%
T/C (P388 [10]): 134%
T/C (P388 [11]): 127%

COC1=C(C)[C@@H]2CC(=O)O[C@@H]3C[C@H]4C(C)=C[C@H](O)C(=O)[C@]4(C)[C@@H](C1=O)[C@@]32C [PICRASIN B]
EC50 (KB): > 100 µg/mL
EC50 (P388 [1]): > 100 µg/mL
T/C (P388 [12]): 107%
T/C (P388 [13]): 107%
T/C (P388 [14]): 102%
T/C (P388 [15]): 107%

CC1=CC(=O)[C@@H](O)[C@]2(C)[C@H]3[C@]4(O)OC[C@]35[C@H]([C@@H](C)[C@H]4O)[C@@H](O)C(=O)O[C@@H]5C[C@@H]12 [GLAUCARUBOLONE]
EC50 (KB): 0.11 µg/mL (≈ 0.279 µM)
EC50 (P388 [1]): 0.01 µg/mL (≈ 0.0254 µM)
T/C (P388 [5]): 132%
